Results as given in PMC8145144, “Transport of Dietary Anti-Inflammatory Peptide, γ-Glutamyl Valine (γ-EV), across the Intestinal Caco-2 Monolayer” (Nutrients, 2021).
Entries after “also recorded” stand apart in the source; their conditions may differ.

Columns and labels:
Caco-2 monolayer [1] = tested on: Caco-2 monolayer; parameters: method as in PMID 32786865; conditions: 1 mM γ-EV across Caco-2 cells, previous study; cited from earlier work
Caco-2 monolayer cells = test: in vitro; assay type: in vitro ADME, human; conditions: Caco-2
Method: (§1) The route of transport of γ-EV across Caco-2 monolayer cells was determined using 1 mM γ-EV transported for 2 h, following the same protocol as mentioned in Section 2.4. However, in this case, four transport inhibitors were used prior to γ-EV addition in the apical layer, to elucidate the mechanism of transport. Theaflavin 3′-gallate (TF3′G) (20 μM), a cell tight-junction enhancer, was added to the EMEM growth medium 24 h before the experiment. Wortmannin (a transcytosis inhibitor, 1 μM), cytochalasin D (a cell tight-junction disruptor, 0.5 μg/mL), and Gly-Sar (PepT1 transporter inhibitor, 25 mM) were added 30 min before γ-EV addition in the HBSS buffer (pH 6.5). After the treatment was over, the apical and basal layers were collected, and the concentration of γ-EV was analyzed and represented via Papp. For this study, some of the replicate inserts were used for harvesting the Caco-2 cells for analyzing the tight-junction proteins via Western immunoblotting, while some of the inserts were used for visualizing the tight-junction proteins through immunofluorescence.
(§2) LC-MS/MS was used to detect the γ-EV content after the transport study. The instrument used was the Shimadzu LC system (Nexera X2, Columbia, MD, USA), interfaced with a Sciex QTRAP 6500+ mass spectrometer (Redwood City, CA, USA), equipped with a TurboIonSpray (TIS) electrospray ion source (ESI). […] The mobile phases and gradient used were as previously described. Analyst software (version 1.6.3, Redwood City, CA, USA) was used for the sample acquisition control and data analysis. The manufacturer’s recommendations were used for tuning and calibration of the SCIEX QTRAP 6500+ mass spectrometer. The parameters for the ESI operation were as follows: 5500 V ion spray voltage; 500 °C source temperature; ion source gas 1, gas 2, and curtain gas, as 50, 50, and 25, respectively; and collision gas, high. The multiple reaction monitoring (MRM) transitions and the compound settings were previously optimized and described in [11]. An external standard curve, containing different concentrations of the peptide (γ-EV diluted in water), was prepared for the absolute quantification of the peptide. The standards were run alongside the samples (γ-EV in HBSS buffer) in triplicate. The linear range of the standard curve was from 0.016 to 10 μM, with a linear regression slope R^2 of 1 with a CV of <8% for all the dilution points.

in vitro [2] = assay type: in vitro ADME, human; conditions: human
Method: as §1, §2

PepT1 = test: in vitro; assay type: in vitro ADME, human; conditions: human, Caco-2, Papp after Gly-Sar pretreatment
Method: as §1, §2

Caco-2 cells [3] = test: MTT cell viability assay; assay type: cell-based, human
Method: (§3) A clear-bottom 96-well black plate (VWR, #29444-008) was seeded with Caco-2 cells (40,000 cells/well) and grown for 15 days in EMEM media (20% FBS and 1% Pen-Strep) to achieve differentiation of the cells. The MTT assay kit (Abcam, #ab211091) was used to test the cell-viability assay following the manufacturer’s guidelines, as described in the earlier study. For the time-course study, a concentration of 1 mM γ-EV was used for determining the cell toxicity, by incubating it on the Caco-2 cells for 2, 4, and 6 h. For the dose study, the cell toxicity of γ-EV was tested for different doses, such as 2.5, 3, 4, 5, and 10 mM, after incubating the peptide on the cells for 2 h. After the treatment period, the cell media was discarded and replaced with a mixture of 50 μL of the MTT reagent and 50 μL of serum-free EMEM media. After the incubation period of 3 h at 37 °C, the MTT-supplemented media was replaced with 150 μL of MTT solvent. Following that, the plates were incubated on an orbital shaker (200 rpm, 37 °C) (MaxQ 4450, Thermo Fischer Scientific, Waltham, MA, USA) for 15 min, in dark, after which the absorbance of the plate was read at 590 nm (Synergy H1 microplate reader, BioTek, Winooski, VT, USA). The background control readings were subtracted from each of the wells and the cell-viability percentage (%) was calculated using the formula cell viability % = (sample/control) × 100, where the control was cells with no γ-EV treatment, and the sample was the γ-EV treated cells.

MTT cell viability assay = assay type: cell-based, human; conditions: human, Caco-2 cells (differentiated, grown for 15 days), 10 mM, 2 h, read-out: survival rate (cell viability)
Method: as §3

Caco-2 monolayer [4] = tested on: Caco-2 monolayer
in vitro [5] = conditions: human, Caco-2
Caco-2 cells [6] = conditions: cytochalasin D 0.5 μg/mL, across Caco-2 cells; cited from earlier work

Row | Compound | apparent permeability coefficient (Papp) (Caco-2 monolayer [1]) [×10⁻⁶ cm/s] | decrease of Papp by Gly-Sar vs control (Caco-2 monolayer cells) [%] | Papp at 2 h, 1 mM (in vitro [2]; Caco-2, Papp after TF3′G pretreatment) [×10⁻⁶ cm/s] | Papp at 2 h, 1 mM (in vitro [2]; Caco-2, Papp after cytochalasin D pretreatment) [×10⁻⁶ cm/s] | Papp at 2 h, 1 mM (PepT1) [×10⁻⁶ cm/s] | cytotoxicity (Caco-2 cells [3]; 1 mM, exposure 4 and 6 h) | cytotoxicity (Caco-2 cells [3]; 10 mM, 2 h) | cytotoxicity (Caco-2 cells [3]; concentrations up to 5 mM, 2 h) | viability at 2 h, 10 mM (MTT cell viability assay) [%] | Papp range (Caco-2 monolayer [4]) | change in rate of transport (Papp) vs 1 mM dose (Caco-2 monolayer [4]) | Papp A→B at 2 h, 5 mM (in vitro [5]) [×10⁻⁶ cm/s] | Papp A→B at 4 h, 1 mM (in vitro [5]) [×10⁻⁶ cm/s] | Papp A→B at 6 h, 1 mM (in vitro [5]) [×10⁻⁶ cm/s] | Papp at 2 h, 1 mM (in vitro [5]) [×10⁻⁶ cm/s] | Papp at 2 h, 5 mM (in vitro [5]) [×10⁻⁶ cm/s] | increase of peptide transport by cytochalasin D (Caco-2 cells [6]) [%]
1 | CC(C)[C@H](NC(=O)CC[C@H](N)C(=O)O)C(=O)O [γ-EV, γ-glutamyl valine] | 1.56 ± 0.7 | 48 | 0.875 | 4.36 | 0.798 | not toxic; also recorded: No cytotoxicity | cytotoxic | nontoxic; also recorded: not toxic; also recorded: not cytotoxic | 21 | 1.5–2.5 × 10^−6 | did not have a significant change | 2.5 | 0.678 | 0.746 | 1.56 | 2.49 | –
2 | HLPLP | – | – | – | – | – | – | – | – | – | – | – | – | – | – | – | – | 65
